≈ marks a conversion by molar mass, not a printed value. Like-named read-outs stand apart in the source and are kept apart here.

The text below walks through data of patent US12441732B2, “Potassium salt crystal form B of phosphodiesterase type 5 inhibitor, and preparation method and use therefor” (Guangzhou Huazhen Pharmaceutical Co., Ltd, priority 2019, dated 2025).

Series [1] has as its system IPF rats. Description: Bleomycin-induced idiopathic pulmonary fibrosis (IPF) rats. It is filed as in vivo, SD rats. The following applies: 23 days.
Protocol: The animals were purchased, and modeling was started after 3-7 days of acclimatization. The animals were weighed and anesthetized by inhalation with isoflurane. After the animals were confirmed to be anesthetized, the neck was disinfected, and the skin of the neck was cut. The main trachea was exposed by bluntly dissecting the muscle, a small incision was made between the tracheal rings, into which a PE-20 tube was inserted until the left main bronchus, and bleomycin was injected directly (dose: 3 mg/kg, volume: 1.0 ml/kg). The trachea and skin were sutured. After the surgery, the animals were kept warm at 37° C. under an electric blanket until the animals were fully awake and confirmed to be able to feed and drink freely before returning the animals to their normal feeding cages.
50 mg/kg Nintedanib group (BIBF-50 mg/kg): BIBF was prepared into a solution of 10 mg/ml with 0.5% sodium carboxymethyl cellulose and administered by gavage at a dose of 50 mg/kg^−1·d^−1;
Each group of rats was administered by gavage on the day of modeling, once a day for 23 days in total.
After 23 days of continuous administration, all animals in each group were euthanized by intraperitoneal injection of pentobarbital sodium anesthetic (100 mg/kg) in accordance with the KCl standard operating procedure for animal euthanasia. Whole-body perfusion was performed by low-temperature PBS, and then fixation was performed by whole-body formalin perfusion. The left lung was taken and perfused with an equal amount of formalin fluid for weighing and subsequent lung pathology-related tests.
Left lung gross pathological examination: after perfusion with an equal amount of formalin, the wet weight of the left lung after the perfusion was weighed and recorded with a microbalance; the volume of the left lung after perfusion was measured and recorded using a toe volume measuring instrument.
The whole lung of the left lung was dehydrated according to the KCl pathology standard SOPs, and paraffin blocks were prepared. The whole lung of the left lung was paraffin-sectioned at a thickness of 3-4 μm. HE staining and Masson Trichrome staining were performed according to the KCl pathology standard staining SOPs, and the slice panoramic scanning was carried out by a Hamamatsu NanoZoomer Digital Pathology (S210) slice scanner. The lung lesion area was calculated by Masson Trichrome staining of the sections, and the left lung fibrosis area (%) was the percentage of fibrosis area in the left lung area; 10 randomly selected fields of view of 1 mm^2 in the lesion area were semi-quantitatively scored by the pathologist under double-blind conditions according to the Ashcroft scoring system (as shown in Table 8 and FIG. 40).
The subject of series [2] is PAH rats. The series is described as follows: Monocrotaline-induced pulmonary arterial hypertension (PAH) rats: RVSP, RVMI, pulmonary arterioles. It is filed as in vivo, SD rats. The following applies: for RVMI, RV/(LV+S) / RVSP: 3 weeks after MCT. The text has this: SD rats were randomly divided into 8 groups, 15 rats/group: a normal control group (Vehicle); a PAH model group (MCT); a PAH+potassium salt crystal form B of WYQ mini-dose group (hereafter referring to as a mini-dose group); a PAH+potassium salt crystal form B of WYQ low-dose group (hereafter referring to as a low-dose group); a PAH+potassium salt crystal form B of WYQ medium-dose group (hereafter referring to as a medium-dose group); a PAH+potassium salt crystal form B of WYQ high-dose group (hereafter referring to as a high-dose group); a PAH+Sildenafil control group (hereafter referring to as a Sildenafil group); a PAH+Tadalafil control group (hereafter referring to as a Tadalafil group).
MCT was fully dissolved with 1M dilute HCl, diluted with double-distilled water, and adjusted to pH=7.2 with 3M NaOH, thereby preparing a MCT solution with a final concentration of 20 mg/ml.
The normal control group was injected subperitoneally with normal saline (50 mg/kg), and the rest of the groups were injected subperitoneally with MCT (50 mg/kg) at one time.
Mini-dose group: the potassium salt crystal form B of WYQ was prepared into a 0.4 mg/ml medicinal solution (ready to use) with normal saline, and administered by gavage at the dose of 2 mg·kg^−1d^−1;
Low-dose group: the potassium salt crystal form B of WYQ was prepared into a 1 mg/ml medicinal solution (ready to use) with normal saline, and administered by gavage at the dose of 5 mg·kg^−1d^−1;
Medium-dose group: the potassium salt crystal form B of WYQ was prepared into a 2 mg/ml medicinal solution (ready to use) with normal saline, and administered by gavage at the dose of 10 mg·kg^−1d^−1;
High-dose group: the potassium salt crystal form B of WYQ was prepared into a 4 mg/ml medicinal solution (ready to use) with normal saline, and administered by gavage at the dose of 20 mg·kg^−1d^−1;
Sildenafil group: Sildenafil was prepared into a 5 mg/ml medicinal solution (ready to use) with 0.5% sodium carboxymethyl cellulose, and administered by gavage at the dose of 25 mg·kg^−1d^−1;
Tadalafil group: Tadalafil was prepared into a 2 mg/ml medicinal solution (ready to use) with 0.5% sodium carboxymethyl cellulose, and administered by gavage at the dose of 10 mg·kg^−1d^−1.
The day of injection was the starting date of the experiment, and the administration was started after 7 days of modeling, once a day for 14 consecutive days.
After 3 weeks from the starting date of the experiment, RVSP data were collected on RM-6240E polygraph for each group of rats.
After 3 weeks from the starting date of the experiment, the animals were anesthetized, hemodynamically tested (RM-6240E polygraph), and sacrificed after manometry. The cardiopulmonary tissues were immediately dissected, and the right and left atria and great vessels were cut off along the atrioventricular junction with ophthalmic scissors to separate the right ventricle (RV) and left ventricular wall plus septum (LV+S), which was absorbed water with filter paper and weighed respectively, and RV/(LV+S), i.e., RVMI was calculated.
After 3 weeks from the starting date of the experiment, rats were heparinized with heparin (50 IU/100 g, intraperitoneal injection) for 5 min. The animals were anesthetized by injection of 20% urethane solution (0.5 ml/100 g), and the blood pressure indexes were detected and recorded.
The heart was dissected, the right ventricular wall was separated, and the left ventricle and the septum were separated, which were absorbed water with filter paper and weighed respectively to calculate the right ventricular hypertrophy index.
The lungs were dissected, wherein the right lung was ligated, and the left lung lobe was perfused with a fixative (4% paraformaldehyde) and then fixed in the fixative, dehydrated by ethanol gradient, allowed to become transparent by using xylene, immersed in wax, embedded in paraffin, sectioned (4 μm), stained with hematoxylin-eosin (HE), sealed with neutral gum and then observed under a microscope. […]

Series [3] has as its system PAH rats. Description: Penile erectile function observation in PAH rats. It is filed as in vivo, SD rats. As to the method:
After gavage treatment, penile erection in the animals was observed, wherein the time of penile erection phenomenon after gavage was recorded in each group.

Series [4] concerns the target PDE5 (Homo sapiens, UniProt O76074). The following applies: background statement; cited from earlier work.
The conditions of series [5]: background statement; cited from earlier work.
Series [6] can be described thus: Dynamic solubility test in water, SGF, FaSSIF, FeSSIF at 37° C. The format is physicochemical. The following applies: for solubility at 1 h / solubility at 4 h / solubility at 24 h: thermodynamic from solid, read-out: solubility (S).
The nature of series [7]: Solid-state stability test (one week, open). The following applies: for HPLC purity: Purity after placement / Purity after placement/Starting purity / Crystal form change: open; for Crystal form change: XRPD. It is filed as physicochemical. The procedure: The solid-state stability of the potassium salt crystal form B prepared in Embodiment 1 was tested, in which 5.22 mg of potassium salt crystal form B samples were weighed and left open at 25° C./60% RH, and 5.19 mg of potassium salt crystal form B samples were weighed and left open at 40° C./75% RH. After one week, all samples were subjected to XRPD characterization (see XRPD parameter settings in Table 1) and HPLC purity test (Agilent 1100) to detect changes in crystal form and purity, wherein HPLC purity test parameters were shown in Table 6. Meanwhile, 4.59 mg of a compound WYQ sample was weighed and left open at 25° C./60% RH, and 5.11 mg of the compound WYQ sample was weighed and left open at 40° C./75% RH. The solid-state stability of these samples were performed under the same conditions for comparative reference.

Where [8] appears, read: Sildenafil group 25 mg·kg^−1d^−1.
Where [9] appears, read: Sildenafil group 25 mg·kg^−1d^−1 gavage once a day for 14 days.
[10] abbreviates: Tadalafil group 10 mg·kg^−1d^−1 gavage once a day for 14 days.

For the molecule `COC(=O)c1ccc2c(c1)NC(=O)/C2=C(\Nc1ccc(N(C)C(=O)CN2CCN(C)CC2)cc1)c1ccccc1` [BIBF, Nintedanib, reference compound], in series [1] (50 mg/kg gavage once a day), the Left lung volume stood at 1736.9 ± 136.10 mm^3 and the Left lung weight is on record as 1.58 ± 0.12 g. In series [1] (50 mg/kg), the “alveolar tissue structure in left lung pulmonary fibrosis lesions (HE staining)” value is listed as “some of the alveolar structures in the fibrotic lesions were still damaged” and the “alveolar tissue structure in left lung pulmonary fibrosis lesions (Masson Trichrom staining)” value was “some of the alveolar structures in the fibrotic lesions disappeared”. For the same molecule, in series [1] (different doses, H&E and Masson Trichrom staining), the “left lung pulmonary fibrosis lesions and lesion range vs the model group” value is “no significant difference”. Besides, in series [1] (left lung, 50 mg/kg), the Fibrosis area worked out at 56.91 ± 4.19% and the “Percentage of score (%) (≤3)” value was found to be 78.75 ± 4.79 %.

For `CCCc1nn(C)c2c(=O)[nH]c(-c3cc(S(=O)(=O)N4CCN(C)CC4)ccc3OCC)nc12` [Sildenafil, reference compound], in series [2] (setting [8]), the “WT % of pulmonary arterioles vs PAH model group” value is recorded as “not statistically significant” and the “tunica media thickness of pulmonary arterioles vs PAH model group” value is “decrease”. In addition, in series [2] (setting [9]), the “RVMI, RV/(LV+S)” value turned out to be 48.4±1.0% and the RVSP is recorded as 60.4±5.0 mmHg. Besides, the “rats showing penile erection” value in series [3] (Sildenafil group 25 mg·kg^−1d^−1, over 30 minutes after gavage) worked out at 80%. Also, the “selective effect on PDE5 relative to PDE6” value in series [4] is recorded as 10 times. The bioavailability result in series [5] is “about 41%”.

`CN1CC(=O)N2[C@H](c3ccc4c(c3)OCO4)c3[nH]c4ccccc4c3C[C@@H]2C1=O` [Tadalafil, reference compound]: in series [2] (setting [10]), the “RVMI, RV/(LV+S)” value worked out at 41.8±1.9% and the RVSP is listed as 52.5±2.4 mmHg. For the same molecule, the “rats showing penile erection” value in series [3] (Tadalafil group 10 mg·kg^−1d^−1, over 30 minutes after gavage) amounted to 80%. For the same molecule, the biological half-life result in series [5] is “approximately 17.5 hours”.

Regarding `CCCCOC(=O)NS(=O)(=O)c1cccc(-c2nc3c(CCC)nn(C)c3c(=O)[nH]2)c1` [compound WYQ, 5-(2-H-5 (N-butoxycarbonylaminosulfonyl)phenyl)-1-methyl-3-propyl-1,6-dihydro-7H-pyrazolo [4,3-d]pyrimidin-7-one], the “crystal form change after XRPD assay (FC)” value in series [6] (FaSSIF, 1 h) was “yes”; in series [6] (FaSSIF, 4 h), “yes”; in series [6] (FaSSIF, 24 h), “yes”; in series [6] (FeSSIF, 1 h), “yes”; in series [6] (FeSSIF, 4 h), “yes”; in series [6] (FeSSIF, 24 h) it was “yes”. Besides, the “crystal form change after XRPD assay (FC)” value in series [6] (SGF, 1 h) is reported as “yes”; in series [6] (SGF, 4 h) it was “yes”; in series [6] (SGF, 24 h), “yes”; in series [6] (water, 1 h) it was “yes”; in series [6] (water, 4 h), “yes”; in series [6] (water, 24 h), “yes”. For the same molecule, the pH in series [6] (FaSSIF, 1 h) came to 6.5; in series [6] (FaSSIF, 4 h), 6.5; in series [6] (FaSSIF, 24 h) it was 6.6; in series [6] (FeSSIF, 1 h), 5.0; in series [6] (FeSSIF, 4 h) it was 5.0; in series [6] (FeSSIF, 24 h), 5.0. The pH in series [6] (SGF, 1 h) is 2.4; in series [6] (SGF, 4 h), 2.5; in series [6] (SGF, 24 h), 2.4; in series [6] (water, 1 h), 7.7; in series [6] (water, 4 h) it was 7.9; in series [6] (water, 24 h) it was 7.6. Also, the solubility at 1 h in series [6] (fasted-state simulated intestinal fluid (FaSSIF), FaSSIF, 1 h) is 1900 µg/mL (≈ 4250 µM); in series [6] (fed-state simulated intestinal fluid (FeSSIF), FeSSIF, 1 h), 160 µg/mL (≈ 358 µM); in series [6] (simulated gastric fluid (SGF), simulated gastric fluid, SGF, 1 h), 5.6 µg/mL (≈ 12.5 µM); in series [6] (water, 1 h) it was 2200 µg/mL (≈ 4920 µM). Further, the solubility at 4 h in series [6] (fasted-state simulated intestinal fluid (FaSSIF), FaSSIF, 4 h) is 1900 µg/mL (≈ 4250 µM); in series [6] (fed-state simulated intestinal fluid (FeSSIF), FeSSIF, 4 h), 160 µg/mL (≈ 358 µM); in series [6] (simulated gastric fluid (SGF), simulated gastric fluid, SGF, 4 h) it was 6 µg/mL (≈ 13.4 µM); in series [6] (water, 4 h), 1800 µg/mL (≈ 4020 µM). Also, the solubility at 24 h is 2000 µg/mL (≈ 4470 µM) in series [6] (fasted-state simulated intestinal fluid (FaSSIF), FaSSIF, 24 h); 160 µg/mL (≈ 358 µM) in series [6] (fed-state simulated intestinal fluid (FeSSIF), FeSSIF, 24 h); 6.9 µg/mL (≈ 15.4 µM) in series [6] (simulated gastric fluid (SGF), simulated gastric fluid, SGF, 24 h); 2200 µg/mL (≈ 4920 µM) in series [6] (water, 24 h). Also, the “decrease in purity after one week of placement” value in series [7] (25° C./60% RH) was “No significant decrease”. Besides, the “HPLC purity: Purity after placement” value in series [7] (25° C./60% RH, one week) was 97.17 area %; in series [7] (40° C./75% RH, one week), 96.30 area %. The “Purity after placement/Starting purity” value in series [7] (25° C./60% RH, one week) was 99.8%; in series [7] (40° C./75% RH, one week), 98.9%. The Crystal form change result in series [7] (25° C./60% RH, one week) is given as “unchanged”; in series [7] (40° C./75% RH, one week) it was “changed”. Moreover, the “decrease in HPLC purity (area %)” value in series [7] (40° C./75% RH, one week) is on record as “about 1%”.

For orientation: solubility means the dissolved amount per volume that the medium holds.
